What all share (type): binding
Experiment [1] addresses T1, Bacillus anthracis DHPS (BaDHPS) (Bacillus anthracis, UniProt Q81VW8).
Experiment [2] has as its target T1, Bacillus anthracis DHPS (BaDHPS). This is another data set of the same source.
Experiment [3] concerns the target BSA (Bos taurus, UniProt P02769). Description: Incubation of probe in 1% BSA monitored by FP. Conditions: FP absorbance significantly reduced.

The text below walks through data of article PMC3384522 (Bioconjugate Chemistry, 2011).

T1 sequence (Q81VW8 1-280): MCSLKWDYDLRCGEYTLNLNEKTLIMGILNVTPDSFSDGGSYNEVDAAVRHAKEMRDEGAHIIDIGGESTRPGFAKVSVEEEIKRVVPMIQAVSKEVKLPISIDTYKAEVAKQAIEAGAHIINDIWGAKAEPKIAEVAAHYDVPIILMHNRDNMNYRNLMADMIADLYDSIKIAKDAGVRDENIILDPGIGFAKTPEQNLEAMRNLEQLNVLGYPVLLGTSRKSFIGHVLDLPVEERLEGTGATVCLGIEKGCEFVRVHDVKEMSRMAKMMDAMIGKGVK
Sequence of BSA (P02769 25-607): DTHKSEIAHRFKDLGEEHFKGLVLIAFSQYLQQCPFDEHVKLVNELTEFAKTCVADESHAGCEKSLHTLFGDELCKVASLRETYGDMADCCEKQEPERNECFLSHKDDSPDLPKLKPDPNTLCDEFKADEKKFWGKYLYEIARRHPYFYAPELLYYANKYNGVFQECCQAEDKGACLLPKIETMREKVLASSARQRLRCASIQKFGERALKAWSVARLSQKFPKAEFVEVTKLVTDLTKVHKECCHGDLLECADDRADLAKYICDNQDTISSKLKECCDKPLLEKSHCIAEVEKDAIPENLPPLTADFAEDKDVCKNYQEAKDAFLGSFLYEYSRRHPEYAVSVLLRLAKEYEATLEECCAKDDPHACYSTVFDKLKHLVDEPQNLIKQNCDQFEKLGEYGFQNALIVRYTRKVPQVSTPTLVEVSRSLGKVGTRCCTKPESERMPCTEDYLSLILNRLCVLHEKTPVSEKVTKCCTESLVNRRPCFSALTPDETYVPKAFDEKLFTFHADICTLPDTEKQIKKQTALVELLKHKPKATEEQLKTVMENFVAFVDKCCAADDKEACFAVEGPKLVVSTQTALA

Turning to `Nc1ccc(S(N)(=O)=O)cc1` [SIA, sulfanilamide], the “Competitive displacement of FP probe 4 from BaDHPS” value (shortened to “Competitive displacement”) in experiment [1] is reported as “not able to compete off the FP probe 4”.

On to `Cc1cc(NS(=O)(=O)c2ccc(N)cc2)no1` [SMX, sulfamethoxazole], for which the “Competitive displacement” value in experiment [1] is “not able to compete off the FP probe 4”.

On to `Nc1nc(NCCOCCOCCNC(=O)c2ccc3c(c2)C(=O)OC32c3ccc(O)cc3Oc3cc(O)ccc32)c(N=O)c(=O)[nH]1` [compound 3], for which, in experiment [2], the “Binding site N (ITC)” value stood at 1.59 ± 0.0108 and the “ΔH (ITC)” value was -5.9 ± 0.059 kcal/mol. Also, the “Non-specific protein binding (FP in 1% BSA)” value in experiment [3] is “non-specific protein binder”.

Turning to `CC(C(=O)NCCOCCOCCNC(=O)c1ccc2c(c1)C(=O)OC21c2ccc(O)cc2Oc2cc(O)ccc21)c1nn(C)c2nc(N)[nH]c(=O)c2c1=O` (centres unmarked) [compound 4, N-(2-(2-(2-(2-(7-Amino-1-methyl-4,5-dioxo-1,4,5,6-tetrahydropyridazino[3,4-d]pyrimidin-3-yl)propanamido)ethoxy)ethoxy)ethyl)-3',6'-dihydroxy-3-oxo-3H-spiro[isobenzofuran-1,9'-xanthene]-5-carboxamide], in experiment [2], the “Binding site N (ITC)” value is recorded as 1.09 ± 0.0464 and the “ΔH (ITC)” value is -2.8 ± 0.159 kcal/mol.

`Nc1nc2ncc(CNc3ccc(C(=O)O)cc3)nc2c(=O)[nH]1` [pteroic acid]: the “Competitive displacement” value in experiment [1] is “able to compete off the FP probe 4”.
